The source of these data is US11040951B2, “Methods and compositions relating to genotoxin colibactin” (PRESIDENT AND FELLOWS OF HARVARD COLLEGE, priority 2018, dated 2021).

Entries after “also recorded” stand apart in the source; their conditions may differ. Where two headings read alike, the source gives them in different places. Bounds are passed on as bounds.

The test system of one series is ClbPFL-S95A. Description: In vitro cleavage of synthetic substrates by inactive mutant, LC-MS detection. Type of series: biochemical, E. coli. The protocol: (§1) The top graph of FIG. 2A depicts LC-MS detection of the prodrug scaffold ([M+H]^+: 343.2597 m/z) released by the hydrolysis of (1) by ClbP in vitro. Reactions were carried out in 50 mM Tris pH 8.0, 200 mM NaCl, 0.1 μM enzyme. 0.02% w/v DDM was added for all reactions involving full-length ClbP (Error bars are SD, n=3). The bottom graph of FIG. 2B depicts kinetic analysis of ClbP acting on synthetic precolibactin-mimic substrate (1). Note that this substrate is insoluble above 200 μM under assay conditions. Rates were calculated by quenching reactions in 1-minute intervals in methanol and quantifying the amount of substrate cleaved by derivatization of the L-alanine product with o-phthaldialdehye (OPA) and fluorescence detection (see Examples) (Error bars are SD, n=3). Substrate is insoluble above 200 μM under assay conditions. All kinetics experiments are averages of 3 independent replicates, reactions were carried out in 50 mM Sodium Phosphate pH 8.0, 200 mM NaCl, 0.02% w/v DDM, 0.1 μM enzyme. The bottom graph of FIG. 2B depicts the approach and substrates sampled in this SAR study. All kinetics experiments are averages of 3 independent replicates, reactions were carried out in 50 mM Sodium Phosphate pH 8.0, 200 mM NaCl, 0.02% w/v DDM, 0.1 μM ClbP-FL (full length) (also referred to herein as ClbPFL). All errors are ±SD.
(§2) Optical densities of E. coli cultures were determined with a DU 730 Life Sciences UV/Vis spectrophotometer (Beckman Coulter, Indianapolis, Ind.) by measuring absorbance at 600 nm. Ultracentrifugation was performed on a Beckman-Coulter Optima XE-90 Ultracentrifuge fitted with a type 45 Ti rotor in 70 mL polycarbonate tubes. Solvents and formic acid used for LC-MS were B & J Brand High Purity Solvents (Honeywell Research Chemicals). High-resolution LC-MS analyses of enzyme assays and synthetic compounds were performed on an Agilent 6530 Q-TOF Mass Spectrometer fitted with a dual-spray electrospray ionization (ESI) source. […] All experiments were performed in positive ion mode, and the masses detected corresponded to [M+H]+ ions unless otherwise noted. […]

Series [1] in a line: Solubility and membrane permeability as observed in the assays. Type of series: physicochemical. The conditions noted are these: under assay conditions.
Series [2] relates to ClbPFL (full-length ClbP). The series can be described thus: In vitro cleavage of synthetic substrates by ClbPFL, LC-MS detection. Format: biochemical, E. coli. Conditions: LC-MS detection of cleavage product. As for the experimental part: as §1
Optical densities of E. coli cultures were determined with a DU 730 Life Sciences UV/Vis spectrophotometer (Beckman Coulter, Indianapolis, Ind.) by measuring absorbance at 600 nm. Ultracentrifugation was performed on a Beckman-Coulter Optima XE-90 Ultracentrifuge fitted with a type 45 Ti rotor in 70 mL polycarbonate tubes. Solvents and formic acid used for LC-MS were B & J Brand High Purity Solvents (Honeywell Research Chemicals). High-resolution LC-MS analyses of enzyme assays and synthetic compounds were performed on an Agilent 6530 Q-TOF Mass Spectrometer fitted with a dual-spray electrospray ionization (ESI) source. The capillary voltage was set to 3.5 kV, the fragmentor voltage to 175 V, the skimmer voltage to 65 V, and the Oct 1 RF to 750 V. The drying gas temperature was maintained at 275° C. with a flow rate of 8 L/min and a nebulizer pressure of 35 psi. A standard calibrant mix was introduced continuously during all experiments via the dual-spray ESI source. For analytical liquid chromatography, unless otherwise noted, experiments were performed using an Agilent Technologies 1200 series LC on a Hypersil GOLDaq™ C18 reverse phase column (50×3 mm, Thermo Scientific) with the following elution conditions: a gradient from 35% solvent A:65% solvent B to 100% solvent A over 5 minutes, holding at 100% A for 2 minutes, followed by a gradient back to 35% solvent A over 1 minute and holding at 35% solvent A for 3.5 minutes (solvent A: acetonitrile+0.1% formic acid; solvent B: water+0.1% formic acid; flow rate=0.4 mL/minute; injection volume=10 μL). All experiments were performed in positive ion mode, and the masses detected corresponded to [M+H]+ ions unless otherwise noted. Masses were found within 5 ppm of the expected [M+H]+ masses.
For all in vitro assays involving ClbPFL and ClbFL-S95A “Tris assay buffer” refers to a buffer composed of 50 mM Tris, 200 mM NaCl, 0.02% w/v DDM, pH 8.0. Likewise, “phosphate assay buffer” refers to 50 mM sodium phosphate, 200 mM NaCl, 0.02% w/v DDM, pH 8.0.

A further series has as its system ClbPFL. The series can be described thus: In vitro kinetics assay with ClbPFL (o-phthaldialdehyde derivatization). Format: biochemical, E. coli. The protocol: In vitro kinetics assays with ClbPFL (comparison of substrates 2, 3, and 4 using o-phthaldialdehyde derivatization): Assays were run in triplicate in 1.5 mL deep-well plates. ClbPFL-CHis10 was defrosted from −80° C. stocks on ice, then buffer exchanged into phosphate assay buffer using Zeba Spin 40K MWCO desalting columns (ThermoFisher Scientific). The enzyme was then diluted to 0.6 μM in phosphate assay buffer and 50 μL of this stock was deposited in the appropriate wells. The substrate of interest was prepared in a 2-fold dilution series in phosphate assay buffer. Reactions were initiated by the addition of 250 μL of substrate stock to each assay well to a final concentration of 0.1 μM ClbP, 12.5-200 μM substrate, 3% DMSO and incubated at 25° C. Reaction mixtures were pipetted briefly to mix. […] 50 μL of each supernatant from the quenched reactions and standard curves were then transferred to the appropriate wells, pipetted once to mix, and then fluorescence was immediately measured on a plate reader (Bio-Tek Synergy HTX multimode plate reader, measurement settings −360/40 nm excitation filter, 440/20 nm emission filter, detector gain: 35). Fluorescence was measured every 30 seconds for 10 minutes and the maximum value achieved for each well was used for calculations. […]

For another series, the system named is ClbPpep. Description: In vitro cleavage of synthetic substrates by isolated peptidase domain, LC-MS detection. Type of series: biochemical, E. coli. The protocol:
as §1, §2

Consider `CCCCCCCCCCCCCC(=O)N[C@H](CC(N)=O)C(=O)N[C@@H](C)CCC(=O)CC(=O)NC1(C(=O)O)CC1` [(1)], for which the “cleavage by ClbPFL-S95A in vitro” value in the series with ClbPFL-S95A is reported as “no cleavage activity”; with ClbPFL-S95A (listed as 2) it was “no activity”. Moreover, the solubility limit in series [1] is no more than 200 µM. Also, the “cleavage by ClbPFL in vitro” value in series [2] was “rapidly in vitro”. The “kinetic parameters / hydrolysis efficiency compared with the reference substrate” value in the series with ClbPFL was “comparable”. For the same compound, the “cleavage by ClbPpep in vitro” value with ClbPpep was “no cleavage activity”; with ClbPpep (listed as 2), “no activity; also recorded: cannot process”.
